Reference: patent US4285941A, “Cephalosporin compounds and antibacterial drugs containing the same” (Eisai Co., Ltd., priority 1979, dated 1981)
Structures can show the parent of a compound that is named as a salt.

Legend:
[1] = Acute toxicity (LD50, mouse, oral); settings: in vivo
Description: The acute toxicity values [LD50 (mouse, oral)] for the following compounds, for example, were over 5 g/kg: […]

[2] = test system: Staphylococcus aureus 209-P; assay: Minimal inhibitory concentration (MIC), standard agar dilution method; format: cell-based; settings: Mueller Hinton agar, 37° C., 18 hours, Examples 1, 2, 4, 5, 6, 8 and 22 as sodium salts, others as free carboxylic acids
Procedure: (§1) The compounds obtained in these examples were tested for their antibacterial activities in vitro. Minimal inhibitory concentration (MIC) was determined by the standard agar dilution method of the Japan Society of Chemotherapy. Compounds were dissolved in appropriate solvents (sterilized water for sodium salts and acetone-water [1:1] for free acids) and serial two-fold dilutions were made. Sodium salt of Cefazolin was chosen as the control compound. One-ml aliquots of each dilution were mixed with 9 ml of Mueller Hinton agar in petri-dishes to make agar plates containing the compound at serially diluted concentrations. After agar hardened, plates were put in an incubator at 37° C. for 1.5-2 hours with the lids slightly open to evaporate acetone off the plates. Test organisms were grown for 18 hours at 37° C. in Trypticase Soy broth and diluted in saline to approximately 10^6 colony forming units per ml. A loopful of each cell suspension was applied on the agar plate mentioned above and the plates were incubated for 18 hours at 37° C. before MIC was determined. MIC values of the compounds of Examples 1, 2, 4, 5, 6, 8 and 22 were determined as their sodium salts and those of other compounds as free carboxylic acids.

[3] = test system: Pseudomonas aeruginosa EP-172; assay: as above; format: cell-based; settings: EP172, Mueller Hinton agar, 37° C., 18 hours, Examples 1, 2, 4, 5, 6, 8 and 22 as sodium salts, others as free carboxylic acids
Procedure: as §1

[4] = test system: Klebsiella pneumoniae EK-6; assay: as above; format: cell-based; settings: EK6, Mueller Hinton agar, 37° C., 18 hours, Examples 1, 2, 4, 5, 6, 8 and 22 as sodium salts, others as free carboxylic acids
Procedure: as §1

Escherichia coli NIHJ = assay: as above; format: cell-based; settings: Mueller Hinton agar, 37° C., 18 hours, Examples 1, 2, 4, 5, 6, 8 and 22 as sodium salts, others as free carboxylic acids
Procedure: as §1

Proteus morganii EP-14 = assay: as above; format: cell-based; settings: Morganella morganii, EP14; Mueller Hinton agar, 37° C., 18 hours; Examples 1, 2, 4, 5, 6, 8 and 22 as sodium salts, others as free carboxylic acids
Procedure: as §1

[5] = test system: Serratia marcescens ES-75; assay: as above; format: cell-based; settings: ES75, Mueller Hinton agar, 37° C., 18 hours, Examples 1, 2, 4, 5, 6, 8 and 22 as sodium salts, others as free carboxylic acids
Procedure: as §1

SMILES | LD50 [1] | MIC [2] | MIC [3] | MIC [4] | MIC (Escherichia coli NIHJ) | MIC (Proteus morganii EP-14) | MIC [5]
Cn1nnnc1SCC1=C(C(=O)O)N2C(=O)[C@@H](NC(=O)[C@H](NC(=O)c3coc4cc(O)c(O)cc4c3=O)c3ccccc3)[C@H]2SC1 [Example 1, Sodium salt of 7β-[D-2-(6,7-dihydroxychromone-3-carboxamido)-2-phenylacetamido]-3-[(1-methyltetrazol-5-yl)-thiomethyl]-3-cephem-4-carboxylic acid] | > 5000 mg/kg | 1.56 µg/mL | 0.8 µg/mL | ≤ 0.1 µg/mL | 0.4 µg/mL | 0.4 µg/mL | ≤ 0.1 µg/mL
Cc1nnc(SCC2=C(C(=O)O)N3C(=O)[C@@H](NC(=O)[C@H](NC(=O)c4coc5cc(O)c(O)cc5c4=O)c4ccc(O)cc4)[C@H]3SC2)s1 [Example 4, Sodium salt of 7β-[D-2-(6,7-dihydroxychromone-3-carboxamido)-2-(4-hydroxyphenyl)acetamido]-3-[(5-methyl-1,3,4-thiadiazol-2-yl)thiomethyl]-3-cephem-4-carboxylicacid] | > 5000 mg/kg | 1.56 µg/mL | 1.56 µg/mL | ≤ 0.1 µg/mL | 0.8 µg/mL | 1.56 µg/mL | ≤ 0.1 µg/mL
CC(=O)Oc1cc2occ(C(=O)N[C@@H](C(=O)N[C@@H]3C(=O)N4C(C(=O)O)=C(CSc5nnnn5C)CS[C@H]34)c3ccccc3)c(=O)c2cc1OC(C)=O [Example 5, Sodium salt of 7β-[D-2-(6,7-diacetoxychromone-3-carboxamido)-2-phenylacetamido]-3-[(1-methyltetrazol-5-yl)thiomethyl]-3-cephem-4-carboxylic acid] | > 5000 mg/kg | 1.56 µg/mL | 0.4 µg/mL | ≤ 0.1 µg/mL | 0.2 µg/mL | 0.4 µg/mL | ≤ 0.1 µg/mL
O=C(O)C1=C(CSc2ccccn2)CS[C@@H]2[C@H](NC(=O)[C@H](NC(=O)c3coc4cc(O)c(O)cc4c3=O)c3ccc(O)cc3)C(=O)N12 [Example 24, 7β-[D-2-(6,7-Dihydroxychromone-3-carboxamido)-2-(4-hydroxyphenyl)acetamido]-3-(2-pyridylthiomethyl)-3-cephem-4-carboxylic acid] | – | 0.8 µg/mL | 0.8 µg/mL | ≤ 0.1 µg/mL | 0.4 µg/mL | 25 µg/mL | ≤ 0.1 µg/mL
O=C(O)C1=C(CSc2cccc[n+]2[O-])CS[C@@H]2[C@H](NC(=O)[C@H](NC(=O)c3coc4cc(O)c(O)cc4c3=O)c3ccc(O)cc3)C(=O)N12 [Example 25, 7β-[D-2-(6,7-Dihydroxychromone-3-carboxamido)-2-(4-hydroxyphenyl)acetamido]-3-[2-(pyridyl-1-oxido)thiomethyl]-3-cephem-4-carboxylic acid] | – | 1.56 µg/mL | 0.8 µg/mL | ≤ 0.1 µg/mL | 0.8 µg/mL | 25 µg/mL | 0.2 µg/mL
O=C(O)C1=C(CSc2ncccn2)CS[C@@H]2[C@H](NC(=O)[C@H](NC(=O)c3coc4cc(O)c(O)cc4c3=O)c3ccc(O)cc3)C(=O)N12 [Example 26, 7β-[D-2-(6,7-Dihydroxychromone-3-carboxamido)-2-(4-hydroxyphenyl)acetamido]-3-(2-pyrimidinylthiomethyl)-3-cephem-4-carboxylic acid] | – | 0.8 µg/mL | 1.56 µg/mL | ≤ 0.1 µg/mL | 0.8 µg/mL | 50 µg/mL | 0.2 µg/mL
Cc1nnc(SCC2=C(C(=O)O)N3C(=O)[C@@H](NC(=O)[C@H](NC(=O)c4coc5cc(O)c(O)cc5c4=O)c4ccc(O)cc4)[C@H]3SC2)o1 [Example 27, 7β-[D-2-(6,7-Dihydroxychromone-3-carboxamido)-2-(4-hydroxyphenyl)acetoamido]-3-[(5-methyl-1,3,4-oxadiazol-2-yl)thiomethyl]-3-cephem-4-carboxylic acid] | – | 0.8 µg/mL | 1.56 µg/mL | ≤ 0.1 µg/mL | 0.4 µg/mL | 50 µg/mL | 0.2 µg/mL
Cn1nnnc1SCC1=C(C(=O)O)N2C(=O)[C@@H](NC(=O)[C@H](NC(=O)c3coc4c(O)c(O)c(O)cc4c3=O)c3ccc(O)cc3)[C@H]2SC1 [Example 28, 7β-[D-2-(6,7,8-Trihydroxychromone-3-carboxamido)-2-(4-hydroxyphenyl)acetamido]-3-[(1-methyltetrazol-5-yl)thiomethyl]-3-cephem-4-carboxylic acid] | – | 3.13 µg/mL | 0.4 µg/mL | ≤ 0.1 µg/mL | 3.13 µg/mL | 50 µg/mL | 0.8 µg/mL
CC(=O)Oc1cc2c(=O)c(C(=O)N[C@@H](C(=O)N[C@@H]3C(=O)N4C(C(=O)O)=C(CSc5nnnn5C)CS[C@H]34)c3ccc(O)cc3)coc2c(OC(C)=O)c1OC(C)=O [Example 29, 7β-[D-2-(6,7,8-Triacetoxychromone-3-carboxamido)-2-(4-hydroxyphenyl)acetamido]-3-[(1-methyltetrazol-5-yl)thiomethyl]-3-cephem-4-carboxylic acid] | – | 1.56 µg/mL | 0.4 µg/mL | ≤ 0.1 µg/mL | 1.56 µg/mL | 12.5 µg/mL | 0.4 µg/mL
O=C(O)Cn1nnnc1SCC1=C(C(=O)O)N2C(=O)[C@@H](NC(=O)[C@H](NC(=O)c3coc4c(O)c(O)c(O)cc4c3=O)c3ccc(O)cc3)[C@H]2SC1 [Example 30, 7β-[D-2-(6,7,8-Trihydroxychromone-3-carboxamido)-2-(4-hydroxyphenyl)acetamido]-3-[(1-carboxymethyltetrazol-5-yl)thiomethyl]-3-cephem-4-carboxylic acid] | – | 12.5 µg/mL | 0.8 µg/mL | ≤ 0.1 µg/mL | 0.8 µg/mL | 50 µg/mL | 0.8 µg/mL
CC(=O)Oc1cc2c(=O)c(C(=O)N[C@@H](C(=O)N[C@@H]3C(=O)N4C(C(=O)O)=C(CSc5nnnn5CC(=O)O)CS[C@H]34)c3ccc(O)cc3)coc2c(OC(C)=O)c1OC(C)=O [Example 31, 7β-[D-2-(6,7,8-Triacetoxychromone-3-carboxamido)-2-(4-hydroxyphenyl)acetamido]-3-[(1-carboxymethyltetrazol-5-yl)thiomethyl]-3-cephem-4-carboxylicacid] | – | 12.5 µg/mL | 0.8 µg/mL | ≤ 0.1 µg/mL | 0.8 µg/mL | 25 µg/mL | 0.8 µg/mL
Cc1nnc(SCC2=C(C(=O)O)N3C(=O)[C@@H](NC(=O)Cn4cnnn4)[C@H]3SC2)s1 [Sodium salt of Cefazolin, reference compound] | – | 0.4 µg/mL | > 100 µg/mL | 1.56 µg/mL | 1.56 µg/mL | > 100 µg/mL | > 100 µg/mL
